Results on 1 compound are retold here after US20210128690A1, “METHODS OF ADMINISTERING HEPCIDIN” (La Jolla Pharmaceutical Company, priority 2016, published 2021).

Each structure is given as a SMILES string.

The nature of this test: hepcidin administration to human subjects (patients with sickle cell disease or hereditary hemochromatosis). The following applies: doses of 1 mg hepcidin and 5 mg hepcidin. Type of test: in vivo. An excerpt:
FIG. 1 illustrates the change in serum ferritin levels at baseline and 8 days post hepcidin administration in two patients with sickle cell disease and a high ferritin serum baseline.
Efficacy at this dosing was not expected based on animal studies in mice, rats, and dogs.

For the compound `CC[C@H](C)[C@@H]1NC(=O)[C@@H](NC(=O)[C@@H](NC(=O)[C@@H]2CCCN2C(=O)[C@H](Cc2ccccc2)NC(=O)[C@H](Cc2c[nH]cn2)NC(=O)[C@@H](NC(=O)[C@@H](N)CC(=O)O)[C@@H](C)O)[C@@H](C)CC)CSSC[C@@H](C(=O)N[C@@H](CCCCN)C(=O)N[C@H](C(=O)O)[C@@H](C)O)NC(=O)[C@@H]2CSSC[C@@H]3NC(=O)[C@@H]4CSSC[C@H](NC(=O)[C@H](Cc5ccccc5)NC1=O)C(=O)N[C@@H](CSSC[C@H](NC(=O)[C@H](CCCCN)NC(=O)[C@H](CO)NC(=O)[C@H](CCCNC(=N)N)NC(=O)[C@H](Cc1c[nH]cn1)NC3=O)C(=O)NCC(=O)N[C@@H](CCSC)C(=O)N2)C(=O)NCC(=O)N4` [hepcidin], the “efficacy in human subjects” value is on record as “display efficacy”.
